Calls of active or inactive are those of the source. The rule behind the calls is not given here.
Tested on: GENE-TOX genotoxicity assays, various organisms and cells
Experiment: GENE-TOX mutagenicity studies
Details: for call: Assay Type: In vivo carcinogenicity studies
From the text: GENE-TOX provides genetic toxicology (mutagenicity) test data from expert peer review of open scientific literature for more than 3,000 chemicals from the United States Environmental Protection Agency (EPA). GENE-TOX was established to select assay systems for evaluation, review data in the scientific literature, and recommend proper testing protocols and evaluation procedures for these systems.
GENE-TOX covers the years 1991 - 1998. It is no longer updated.
This is an archive assay for GENE-TOX mutagenicity studies.

[1] = Species/Cell Type: Salmonella typhimurium (one or more of the five standard strains: TA98, TA100, TA1535, TA1537, and TA1538), Assay Type: Histidine reverse gene mutation, Ames assay, Assay Code: SAL+, Evaluation Type: Evaluation A (Pre-1980)
[2] = Species/Cell Type: Human lymphocytes, Assay Type: Sister-chromatid exchange (SCE) in vitro, Assay Code: SCLT, Evaluation Type: Evaluation B (Post-1980)
[3] = Species/Cell Type: Human, Assay Type: Sister-chromatid exchange (SCE) in vitro, Assay Code: SC1T, Evaluation Type: Evaluation B (Post-1980)
[4] = Species/Cell Type: Nonhuman, Assay Type: Sister-chromatid exchange (SCE) in vivo, Assay Code: SC3T, Evaluation Type: Evaluation B (Post-1980)
[5] = Species/Cell Type: Nonhuman, Assay Code: CCG+, Evaluation Type: Evaluation A (Pre-1980)
[6] = Species/Cell Type: Chinese hamster lung (V79) cells, Assay Type: Forward gene mutation at the HPRT or ouabain locus, Assay Code: V79+, Evaluation Type: Evaluation A (Pre-1980)
[7] = Species/Cell Type: Salmonella typhimurium (one or more of the five standard strains: TA98, TA100, TA1535, TA1537, and TA1538), Assay Type: Histidine reverse gene mutation, Ames assay, Assay Code: SALT, Evaluation Type: Evaluation A (Pre-1980)
[8] = Species/Cell Type: Drosophila melanogaster, Assay Type: Sex-linked recessive lethal gene mutation, Assay Code: SRL-, Evaluation Type: Evaluation A (Pre-1980)
[9] = Species/Cell Type: Salmonella typhimurium (one or more of the five standard strains: TA98, TA100, TA1535, TA1537, and TA1538), Assay Type: Histidine reverse gene mutation, Ames assay, Assay Code: SAL+*, Activation: With metabolic activation, Evaluation Type: Evaluation A (Pre-1980)
[10] = Species/Cell Type: Chinese hamster ovary (CHO) cells, Assay Type: Forward gene mutation at the HPRT locus, Assay Code: CHO+, Evaluation Type: Evaluation B (Post-1980)

With `COc1ccc2c(c1)CCC(c1ccccc1)=C2c1ccc(OCCN2CCCC2)cc1` the mutagenic call (Species/Cell Type: Rabbit, Sex: Male, Assay Type: Sperm morphology, Assay Code: SPR+, Evaluation Type: Evaluation A (Pre-1980)) was “active; positive”.

For `S=C=Nc1cccc2ccccc12`, the mutagenic call (Species/Cell Type: Escherichia coli polA (W3110 vs P3478), Assay Type: Rec-assay, DNA effects (bacterial DNA repair), Assay Code: RE2-, Evaluation Type: Evaluation A (Pre-1980)) was “inactive; negative”, the mutagenic call (Species/Cell Type: Escherichia coli polA (W3119 vs P3478), Assay Type: Rec-assay, DNA effects (bacterial DNA repair), Assay Code: RE1T, Evaluation Type: Evaluation A (Pre-1980)) was “no conclusion” and the mutagenic call (Species/Cell Type: Mouse (BALB/c-3T3) cells, Assay Type: Cell transformation, Assay Code: CTB+D, Dose Response: With dose response, Evaluation Type: Evaluation A (Pre-1980)) was “active; positive”. The call (Species/Cell Type: Nonhuman, Assay Code: CCGT, Evaluation Type: Evaluation A (Pre-1980)) was “no conclusion”, the mutagenic call (Species/Cell Type: Saccharomyces cerevisiae, Assay Type: Mitotic recombination or gene conversion, Assay Code: YEH-, Evaluation Type: Evaluation A (Pre-1980)) was “inactive; negative” and the mutagenic call (Species/Cell Type: Salmonella typhimurium, Assay Type: Forward and reverse gene mutation, host-mediated assay, Assay Code: HMA-, Evaluation Type: Evaluation A (Pre-1980)) was “inactive; negative”. For the same compound, the mutagenic call (Species/Cell Type: Syrian hamster embryo (SHE) cells, Assay Type: Cell transformation, clonal assay, Assay Code: CTC-, Evaluation Type: Evaluation A (Pre-1980)) was “inactive; negative”.

For `O=C1c2ccccc2C(=O)c2c1cc(O)c(CO)c2O`, the mutagenic call [1] was “active; positive”.

`O=C[C@H](O)[C@@H](O)[C@H](O[C@@H]1O[C@H](CO)[C@H](O)[C@H](O)[C@H]1O)[C@H](O)CO` was tested, and the mutagenic call [2] was “no conclusion”, the mutagenic call [3] was “no conclusion” and the mutagenic call [4] was “no conclusion”.

In the case of `S=[Se]=S`, the call [5] is reported as “active; positive”.

`CC(=O)[O-].CC(=O)[O-].CC(=O)[O-].[Cr+3]` was tested, and the mutagenic call (Species/Cell Type: Chinese hamster ovary (CHO) cells, Assay Type: Forward gene mutation at the HPRT locus, Assay Code: CHOT, Evaluation Type: Evaluation B (Post-1980)) was “no conclusion” and the mutagenic call (Species/Cell Type: Nonhuman, Assay Type: Sister-chromatid exchange (SCE) in vitro, Assay Code: SC2T, Evaluation Type: Evaluation B (Post-1980)) was “no conclusion”.

`O=C1C2(Cl)C3(Cl)C4(Cl)C(Cl)(Cl)C5(Cl)C3(Cl)C1(Cl)C5(Cl)C24Cl` (centres undefined) was tested, and the mutagenic call (Species/Cell Type: Human, Sex: Male, Assay Type: Sperm morphology, Assay Code: SPHT, Evaluation Type: Evaluation A (Pre-1980)) was “no conclusion” and the call [5] was “active; positive”.

For `CN(C)CCOc1ccc2c(c1)CC/C(=C\c1ncc([N+](=O)[O-])n1C)C2=O`, the mutagenic call (Species/Cell Type: Drosophila melanogaster, Assay Type: Sex-linked recessive lethal gene mutation, Assay Code: SRL+, Evaluation Type: Evaluation A (Pre-1980)) was “active; positive” and the mutagenic call (Species/Cell Type: Saccharomyces cerevisiae, Assay Type: Mitotic recombination or gene conversion, Assay Code: YEC+, Evaluation Type: Evaluation A (Pre-1980)) was “active; positive”.

`C=C1[C@@H](C)[C@H]2[C@H](Cc3ccccc3)NC(=O)[C@]23OC(=O)/C=C/[C@H](O)CCC[C@@H](C)C/C=C/[C@H]3[C@@H]1O` was tested, and the mutagenic call (Species/Cell Type: Bacillus subtilis (H17 vs M45), Assay Type: Rec-assay, spot test, DNA effects (bacterial DNA repair), Assay Code: REW-, Evaluation Type: Evaluation A (Pre-1980)) was “inactive; negative”.

With `O[C@@H]1[C@H]2O[C@H]2c2cc3c(ccc4ccccc43)cc2[C@H]1O` the mutagenic call [6] was “active; positive” and the mutagenic call [1] was “active; positive”.

For `[N-]=[N+]=CC(=O)OC[C@H](N)C(=O)O`, the mutagenic call (Species/Cell Type: Escherichia coli WP2, Assay Type: Tryptophan reverse gene mutation, Assay Code: WP2+, Evaluation Type: Evaluation A (Pre-1980)) was “active; positive”, the mutagenic call (Species/Cell Type: Escherichia coli polA (W3119 vs P3478), Assay Type: Rec-assay, DNA effects (bacterial DNA repair), Assay Code: RE1+, Evaluation Type: Evaluation A (Pre-1980)) was “active; positive” and the call [5] was “active; positive”. For the same compound, the mutagenic call (Species/Cell Type: Nonhuman, Assay Type: Sister-chromatid exchange (SCE) in vitro, Assay Code: SC2+D, Dose Response: With dose response, Evaluation Type: Evaluation B (Post-1980)) was “active; positive”, the mutagenic call [1] was “active; positive” and the mutagenic call (Species/Cell Type: Syrian hamster embryo (SHE) cells, Assay Type: Cell transformation, clonal assay, Assay Code: CTC+, Evaluation Type: Evaluation A (Pre-1980)) was “active; positive”.

With `O=C1CN=C(c2ccccc2)c2cc([N+](=O)[O-])ccc2N1` the mutagenic call (Species/Cell Type: Aspergillus nidulans, Assay Type: Forward gene mutation, Assay Code: ASF+, Evaluation Type: Evaluation A (Pre-1980)) was “active; positive”.

With `COc1cc2c(c3oc4cccc(OC(C)=O)c4c(=O)c13)C1C=COC1O2` (centres undefined) the mutagenic call [7] was “no conclusion”.

With `COC(=O)[C@H](N)Cc1cnc[nH]1` the mutagenic call [8] was “inactive; negative”.

For `O=[N+]([O-])c1ccc(-c2nc(N(CCO)CCO)c3ccccc3n2)s1`, the mutagenic call [7] was “no conclusion”.

In the case of `CN/C(=C\[N+](=O)[O-])NCCSCc1ccc(CN(C)C)o1`, the mutagenic call [4] is reported as “no conclusion”.

In the case of `C=CCc1ccccc1O`, the mutagenic call [2] is reported as “no conclusion” and the mutagenic call [3] is reported as “no conclusion”.

With `Cc1cc2ccccc2c2ccc3ccccc3c12` the call [5] was “active; positive” and the mutagenic call [9] was “active; positive”.

`CCOCc1c(O)cc2c(c1O)C(=O)c1ccccc1C2=O` was tested, and the mutagenic call [1] was “active; positive”.

With `CO[C@H](C(=O)[C@@H](O)[C@@H](C)O)[C@@H]1Cc2cc3cc(O[C@H]4C[C@@H](O[C@H]5C[C@@H](O)[C@H](O)[C@@H](C)O5)[C@H](O)[C@@H](C)O4)c(C)c(O)c3c(O)c2C(=O)[C@H]1O[C@H]1C[C@@H](O[C@H]2C[C@@H](O[C@H]3C[C@](C)(O)[C@H](O)[C@@H](C)O3)[C@@H](O)[C@@H](C)O2)[C@H](O)[C@@H](C)O1` the mutagenic call [10] was “active; positive”.

`O=NN(CCCl)C(=O)NC1CCCCC1` was tested, and the mutagenic call [6] was “active; positive”, the mutagenic call [10] was “active; positive” and the mutagenic call (Species/Cell Type: Human lymphocytes, Assay Type: Sister-chromatid exchange (SCE) in vivo, Assay Code: SCY+, Evaluation Type: Evaluation B (Post-1980)) was “active; positive”. For the same compound, the call [5] was “active; positive”, the mutagenic call (Species/Cell Type: Nonhuman, Assay Type: Sister-chromatid exchange (SCE) in vitro, Assay Code: SC2+, Evaluation Type: Evaluation B (Post-1980)) was “active; positive” and the mutagenic call (Species/Cell Type: Rodents, Sex: Male, Assay Type: Dominant lethal test, Assay Code: DLT+D, Dose Response: With dose response, Evaluation Type: Evaluation A (Pre-1980)) was “active; positive”.

For `[Se]`, the mutagenic call (Species/Cell Type: Human lymphocytes, Assay Type: Sister-chromatid exchange (SCE) in vitro, Assay Code: SCL+D, Dose Response: With dose response, Evaluation Type: Evaluation B (Post-1980)) was “active; positive” and the mutagenic call (Species/Cell Type: Human, Assay Type: Sister-chromatid exchange (SCE) in vitro, Assay Code: SC1+D, Dose Response: With dose response, Evaluation Type: Evaluation B (Post-1980)) was “active; positive”.

For `Cn1c([N+](=O)[O-])cnc1-c1nc2ccccc2n1CCCN1CCOCC1`, the mutagenic call (Species/Cell Type: Drosophila melanogaster, Assay Type: Sex-linked recessive lethal gene mutation, Assay Code: SRLT, Evaluation Type: Evaluation A (Pre-1980)) was “no conclusion” and the mutagenic call (Species/Cell Type: Saccharomyces cerevisiae, Assay Type: Mitotic recombination or gene conversion, Assay Code: YEC-, Evaluation Type: Evaluation A (Pre-1980)) was “inactive; negative”.

With `O=C(NO)c1ccccc1` the mutagenic call [1] was “active; positive”.

`CCN(CC)CCn1nc2c3c(c(C)ccc31)Sc1cc(Cl)ccc1-2` was tested, and the mutagenic call [8] was “inactive; negative”, the mutagenic call (Species/Cell Type: Mouse lymphoma (L5178Y) cells, Assay Type: Forward gene mutation at the thymidine kinase (TK) locus, chromosome aberrations, Assay Code: L51+, Evaluation Type: Evaluation A (Pre-1980)) was “active; positive” and the mutagenic call (Species/Cell Type: Neurospora crassa, Assay Type: Forward gene mutation, Assay Code: NEF+, Evaluation Type: Evaluation A (Pre-1980)) was “active; positive”. For the same compound, the mutagenic call [9] was “active; positive”.

Reference: PubChem BioAssay AID1259408 (Genetic Toxicology Data Bank (GENE-TOX), 2018)
